Reference: US20240180972A1, “HUMAN PLURIPOTENT STEM CELL-DERIVED SECRETOME AS A BIOLOGIC FOR PREVENTION AND TREATMENT OF NEURODEGENERATIVE AND APOPTOTIC DISEASES” (The Regents of the University of California, priority 2021, published 2024)

What was measured:
[1] = test system: IMR90 fibroblasts; assay: MTT viability assay of IMR90 fibroblasts (H2O2, hESC-CM, dF-CM); type: cell-based; details: 200 μM H2O2
Excerpt: hESC conditioned medium was previously shown to enhance myogenic and neurogenic responses of tissue precursor cells (43, 44), but the effects on cell viability were less studied. We decided to explore a protective role of hESC conditioned medium (hESC-CM) when cells experience oxidative damage, which is physiologically and clinically relevant in a number of human diseases (56, 57). To set up this experimental system, we first performed dose response studies in IMR90 fibroblasts to varying concentrations of H2O2 and of hESC-CM using an MTT assay.
We then tested eight experimental cohorts, e.g., 200 μM H2O2 alone or in combination with 30% hESC-CM or CM from hESC-derived fibroblasts (dF-CM) (43) and controls for the various culture medium formulations (FIG. 1, panel C).
When cells were grown to 70% confluence, they were subcultured at 1/5 dilution for later passaging.
After H2O2 and/or CM or CM-derived factors treatment, the number of viable cells was determined by a resorufin based assay using the commercially available CellTiter-Blue® cell viability assay (G8080, Promega), as per the manufacturer's protocol. MNs were cultured in a 96-well plate at a cell density of 2×10^4 and treated with H2O2 and/or CMs for 24 hours before performing the viability assay. A SpectraMax iD3 Multi-Mode Microplate Reader (Molecular Devices) was used for measuring fluorescence intensity (560/590 nm). […]

[2] = test system: human motor neurons (MNs); assay: MTT viability and Annexin V apoptosis assays of human motor neurons exposed to H2O2; type: cell-based
Procedure: The process of MNP and MN differentiation was as published (61). Briefly, hPSCs were detached by 0.5 mM EDTA and split 1:10 on Matrigel-coated plates (1:50 dilution). After one day, the Essential 8 was changed to neural inducing medium containing neural basal medium (NBM) plus 3 μM CHIR99021 (Tocris), 2 μM LDN-193189 (Tocris) and 3 μM SB431542 (Stemgent). The NBM is composed of DMEM/F12, Neurobasal medium (FisherScientific) at 1:1, N2, B27, 0.1 mM ascorbic acid (Millipore-Sigma), 1× Glutamax and 1× penicillin/streptomycin (all from Invitrogen). The inducing medium was maintained for 5 days and changed every other day. On day 5, the cultured cells were split at 1:6 with Accutase and cultured in NBM containing 3 μM CHIR99021, 2 μM SB431542, 0.1 μM retinoic acid (RA, Stemgent) and 0.5 μM purmorphamine (Pur, Stemgent). […]
[…] A SpectraMax iD3 Multi-Mode Microplate Reader (Molecular Devices) was used for measuring fluorescence intensity (560/590 nm).
The apoptotic assay of fibroblasts was by Annexin V-CF Blue/7-AAD Apoptosis Detection Kit (ab214663, Abcam) according to the manufacturer's protocol. […] Finally, the stained samples were analyzed on a Guava Easycyte Flowcytometer (Millipore-Sigma) at an excitation wavelength of 488 nm and emission wavelengths of 525 and 625 nm. […] The stained plate was analyzed on a SpectraMax iD3 Multi-Mode Microplate Reader (495/525 nm). […]

[3] = test system: OCT4, NANOG; assay: Pluripotency marker expression (qRT-PCR) in iPSCs after epigenetic modifiers; type: cell-based, human; details: iPSCs treated 3 days: 5 μM Nanomycin A, 10 μM LSD1 inhibitor, 5 μM 5-Azacytidine, 10 μM GSK126
Procedure: Total RNA was extracted using the RNeasy mini kit (Qiagen), and the SuperScript III First-Strand Synthesis System (Invitrogen) was used to synthesize cDNA according to the manufacturer's instructions. Real-time PCR was performed on a Bio-Rad iQ5 real-time PCR machine.
(§1) For the collection of CM, separate cultures of hiPSCs were set up for 3 days with one of the following small molecules: 5 μM Nanomycin A (A8191, Apexbio), 10 μM LSD1 inhibitor (489476, Millipore-Sigma), 5 μM 5-Azacytidine (C832A53, Thomas Scientific), and 10 μM GSK126 (67-905, Tocris). After 3 days of treatment, CM was collected (without the inhibitors) using the same protocol as described above.

[4] = test system: ALS-MNPs; assay: Viability (MTT) and apoptosis (Annexin V) of H2O2 exposed ALS-MNPs, incl. epigenetic inhibitors screen; type: cell-based, human
Procedure: […] MNs were cultured in a 96-well plate at a cell density of 2×10^4 and treated with H2O2 and/or CMs for 24 hours before performing the viability assay. A SpectraMax iD3 Multi-Mode Microplate Reader (Molecular Devices) was used for measuring fluorescence intensity (560/590 nm).
The apoptosis assay of fibroblasts was by Annexin V-CF Blue/7-AAD Apoptosis Detection Kit (ab214663, Abcam) according to the manufacturer's protocol. Briefly, cells were detached using 0.05% trypsin and washed twice with PBS. Then, samples were resuspended in 1× annexin-binding buffer and incubated with 5 μL Annexin V-FITC and 5 μL 7-amino-actinomycin D (7AAD) for 15 min at 37° C., avoiding light. Finally, the stained samples were analyzed on a Guava Easycyte Flowcytometer (Millipore-Sigma) at an excitation wavelength of 488 nm and emission filters of 525 and 625 nm. For MNs, the apoptotic assay was conducted on two different markers, FITC-conjugated-annexinV (ab201540) or Cleaved caspase 3 (9669S). For annexinV detection, MNs in 96-well plates were washed twice with PBS. Then, 100 μL Annexin V binding buffer was added with 5 μL Annexin V-FITC for 5 min incubation at 37° C., avoiding light. The stained plate was analyzed on a SpectraMax iD3 Multi-Mode Microplate Reader (490/525 nm). For the Cleaved caspase 3, the immunofluorescence protocol was used.
as §1
Based on the absence of neuroprotective activity in the differentiated progeny of iPSCs, we decided to confirm and mechanistically extrapolate the relationship between the protective effects and pluripotency. […] To follow on the requirement for pluripotency, we employed a screen with inhibitors of pluripotency that modify the epigenetic states of iPSCs. […]

[5] = iPSCs treated 3 days with 10 μM GSK126 before CM collection, N=4, P<0.01

With `OO` [H2O2] the “Cell viability (MTT) after H2O2 treatment” value [1] was “below 50%”, the “Cell viability after H2O2 treatment, normalized to the values at the 0 concentration” value [1] was “below 0.5” and the “Viability (MTT) of human MNs with H2O2 alone or co-treated with CM or fraction” value ([2]; H2O2, 200 μg/ml HBPs, unfractionated CM, N=4) was 0.49±0.01. The “Motor neuron viability after H2O2 treatment” value ([2]; human MNs, 200 μM H2O2) was “below 50%”.

For `Nc1ncn([C@@H]2O[C@H](CO)[C@@H](O)[C@H]2O)c(=O)n1` [5Aza, 5-Azacytidine], the “Expression of OCT4 compared to the untreated groups (WTC11 and CS07)” value [3] was “significantly decreased”.

In the case of `CC[C@H](C)n1cc(C)c2c(C(=O)NCc3c(C)cc(C)[nH]c3=O)cc(-c3ccc(N4CCNCC4)nc3)cc21` [GSK126], the “Expression of OCT4 compared to the untreated groups (WTC11 and CS07)” value [3] is reported as “the decrease was not significant”, the “Effect of treating ALS iPSCs with the epigenetic inhibitor on the neuroprotective activity of their CM” value ([4]; MNPs exposed to H2O2, pre-treated with CM) is reported as “significantly reduced the neuroprotective activity” and the “Apoptosis (Annexin V) of H2O2 exposed ALS-MNPs treated with CM of ALS iPSCs without or with inhibitor pre-treatment” value [4, 5] is reported as 2.65±0.23. For the same compound, the “Viability (MTT) of H2O2 exposed ALS-MNPs treated with CM of ALS iPSCs without or with inhibitor pre-treatment” value [4, 5] was 0.47±0.02.

`C[C@@H]1O[C@@H](CC(=O)O)CC2=C1C(=O)c1c(O)cccc1C2=O` [NaA, Nanomycin A] was tested, and the “Expression of OCT4 compared to the untreated groups (WTC11 and CS07)” value [3] was “significantly decreased”.
